In patent publication US20180235916A1, “ENHANCING BETA CELL REPLICATION AND/OR SURVIVAL” (priority 2015, published 2018):
Values after ≈ are worked out from the molar mass of the structure shown. “Also recorded” adds a separate entry of the source. Like-named read-outs stand apart in the source and are kept apart here.

How the values were obtained:
[1] = system: INS-1 cells; experiment: INS-1 cell proliferation, 3H-thymidine incorporation assay; assay type: cell-based; conditions: for INS-1 cell proliferation, single agents of TSPO experiment: each agent alone, midazolam or clonazepam 100 nM; for effect on GABA-stimulated INS-1 cell proliferation: low doses of PAM with GABA, FIG. 9 panels D-G
Procedure: (§1) 1. ^3H-thymidine incorporation assay: INS-1 cells at 1×10^5/well were treated in triplicate with indicated concentrations of individual compounds and cultured in 10% FCS RPMI164 medium in the presence of 0.3 μCi/well of 3H-thymidine for 48 hours (an optimal time period). The cells were harvested and the levels of ^3H-thymidine uptake in individual wells were measured by beta-counter.
as §1, with “0.3 uCi/well” for “0.3 μCi/well”, “of ^3H-thymidine” for “of 3H-thymidine”
INS-1 cells at 1×10^5/well were treated in triplicate with indicated concentrations of individual compounds and cultured in 10% FCS RPMI164 medium in the presence of ^3H-thymidine (0.3 μCi/well) for 48 hours (an optimal time period). The levels of ^3H-thymidine uptake in individual wells were measured by a scintillation counter.

[2] = Solubility of test compounds (stock solutions)
[3] = system: human islets; assay type: cell-based
Procedure: FIG. 2. Human islets (50/well) were incubated in media with, or without, alprazolam (30 ng/ml) for 4 days in the presence of ^3H thymidine. Data shown are the average rate of proliferation relative to that of cultures with media alone (designated as 1). N=two independent studies with triplicate cultures. Data was very similar in both studies.
N=two independent studies

[4] = patients with T1D or T2D, poor glucose control, after 8 weeks of treatment, vs placebo; cited from earlier work
[5] = molecular target: mitochondrial translocator protein (TSPO) (Homo sapiens, UniProt P30536); conditions: cited from earlier work
Chain of mitochondrial translocator protein (TSPO) (P30536 whole entry): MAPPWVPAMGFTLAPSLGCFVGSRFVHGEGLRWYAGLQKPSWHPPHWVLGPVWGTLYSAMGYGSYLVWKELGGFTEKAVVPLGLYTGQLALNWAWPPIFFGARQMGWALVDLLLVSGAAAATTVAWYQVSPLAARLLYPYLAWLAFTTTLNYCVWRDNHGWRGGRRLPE

[6] = system: EAE; conditions: stressed rats; cited from earlier work
[7] = persons receiving the drug therapeutically; cited from earlier work
[8] = long-term oral GABA, human clinical trials, epileptic seizures and cerebrovascular disorders; cited from earlier work
[9] = system: adult human β-cells in islet xenoplants; conditions: oral GABA treatment; from less than 1% without; cited from earlier work
[10] = PAM 100 nM with GABA 0.3 mM, 48 hrs
[11] = PAM at 10^−7 or 3×10^−8 M with GABA
[12] = GABA 0.3 mM, PK11195 1 uM, 48 hrs
[13] = PAM alone at 10 or/and 100 nM, FIG. 9 panel B
[14] = compound alone at 10^−7-10^−8 M

With `O=C1CN=C(c2ccccc2Cl)c2cc([N+](=O)[O-])ccc2N1` [clonazepam] as the molecule, how does the INS-1 cell proliferation [1, 10] read?
Its INS-1 cell proliferation is “enhanced cell proliferation”.

What about the “effect on GABA-induced INS-1 cell proliferation” value [1, 11] of the same molecule?
Its value is “significantly enhanced GABA-stimulated INS-1 cell proliferation”.

And the INS-1 cell proliferation ([1]; compound alone at 10^−4-10^−9 M, 48 hours)?
The INS-1 cell proliferation was “did not significantly change the proliferation of INS-1 cells”.

What about the “INS-1 cell proliferation, single agents of TSPO experiment” value (“INS-1 cell proliferation, single agents” for short) [1, 12] of the same molecule?
The value was “but not clonazepam or PK11195 induced INS-1 cell proliferation”.

And the “effect on GABA-stimulated INS-1 cell proliferation” value [1]?
Its value is “enhanced GABA-stimulated INS-1 cell proliferation”.

For `Cc1ncc2n1-c1ccc(Cl)cc1C(c1ccccc1F)=NC2` [midazolam], which INS-1 cell proliferation [1, 10] is on record?
The INS-1 cell proliferation was “enhanced cell proliferation”.

And the INS-1 cell proliferation [1, 13]?
Its INS-1 cell proliferation is “significantly stimulated proliferation of INS-1 cells”.

And the “effect on GABA-induced INS-1 cell proliferation” value [1, 11]?
The value was “enhanced GABA-induced INS-1 cell proliferation”.

What about the INS-1 cell proliferation ([1]; PAM at 10^−7 or 3×10^−8 M with GABA at 0.03-0.01 mM) of the same molecule?
Its INS-1 cell proliferation is “significantly enhanced INS-1 cell proliferation”.

What about the “toxicity against INS-1 cells” value ([1]; compound alone at 10^−5 M) of the same molecule?
Its value is “slight toxicity”.

What about the INS-1 cell proliferation ([1]; compound alone at 10^−7-3×10^−8 M, FIG. 4B) of the same molecule?
The INS-1 cell proliferation was “significantly enhanced the proliferation of INS cells”.

What about the INS-1 cell proliferation [1, 14] of the same molecule?
Its INS-1 cell proliferation is “significantly enhanced INS-1 cell proliferation”.

What about the “INS-1 cell proliferation, single agents” value [1, 12] of the same molecule?
Its value is “induced INS-1 cell proliferation”.

What about the “effect on GABA-stimulated INS-1 cell proliferation” value [1] of the same molecule?
Its value is “enhanced GABA-stimulated INS-1 cell proliferation”.

What about the solubility ([2]; water) of the same molecule?
The solubility was 6.25 mM (≈ 2040 µg/mL).

What does the source list for `Cc1nnc2n1-c1ccc(Cl)cc1C(c1ccccc1)=NC2` [alprazolam]?
human islet cell proliferation ([3]; 0.03 mM GABA together with 100 nM alprazolam, FIG. 12): significantly enhanced human islet cell proliferation; human islet cell proliferation enhanced ([3]; 0.03 mM GABA together with alprazolam 30 ng/ml, 4 days, FIG. 3): 138%; human islet cell proliferation promoted compared to cultures with no alprazolam ([3]; alprazolam 30 ng/ml alone, no added GABA, 4 days, FIG. 2): about 123%; human islet cell proliferation relative to the corresponding GABA (alone) dose ([3]; co-treatment 100 nM alprazolam and GABA, FIG. 12): significantly increased human islet cell proliferation; human islet cell proliferation ([3]; dose range of alprazolam alone, low concentrations, FIG. 10): promoted human islet cell proliferation; INS-1 cell proliferation ([1]; 0.01 mM GABA in the presence of 30 or 100 nM alprazolam, FIG. 9 panel C): significantly increased INS-1 cell proliferation; INS-1 cell proliferation [1, 13]: significantly stimulated proliferation of INS-1 cells; ability to enhance GABA's pro-mitotic effects on INS-1 cells ([1]; alprazolam at high concentration of GABA (0.1 or 0.3 mM)): had less ability to enhance GABA's pro-mitotic effects; HbA1c levels [4]: significantly reduced; binding to TSPO [5]: does not bind to TSPO; EAE and inflammation in the spinal cords [6]: inhibited EAE and inflammation in the spinal cords; concentration in the serum [7]: 10 to 100 ng/mL

For `NCCCC(=O)O` [GABA, gamma-aminobutyric acid], which “human islet cell proliferation” value ([3]; 0.03 mM GABA alone, 4 days, FIG. 3) is on record?
Its value is “did not significantly enhance human islet cell proliferation”.

And the “human islet cell proliferation” value ([3]; 0.03 mM GABA alone, FIG. 12)?
Its value is “did not significantly enhance human islet cell proliferation”.

And the “human islet cell proliferation” value ([3]; GABA alone at 0.3-3 mM, FIG. 12)?
The value was “significantly enhanced human islet cell proliferation”.

And the “level of GABA alone required to achieve a similar level of proliferation” value ([3]; similar to 0.03 mM GABA + 100 nM alprazolam, FIG. 12)?
The value was 0.3 mM.

And the “level of GABA alone required to achieve a similar level of proliferation” value ([3]; similar to 0.03 mM GABA + alprazolam 30 ng/ml, FIG. 3)?
Its value is 0.3 mM.

What about the INS-1 cell proliferation ([1]; 0.01 mM GABA alone, FIG. 9 panels C-G) of the same molecule?
The INS-1 cell proliferation was “did not stimulate INS-1 proliferation”.

And the INS-1 cell proliferation ([1]; GABA alone at 0.03-0.01 mM)?
The INS-1 cell proliferation was “failed to induce INS-1 cell proliferation; also recorded: did not significantly stimulate INS-1 cell proliferation”.

What about the INS-1 cell proliferation ([1]; GABA alone at 0.03-0.3 mM, FIG. 9 panels C-G) of the same molecule?
Its INS-1 cell proliferation is “stimulated INS-1 cell proliferation”.

What about the INS-1 cell proliferation ([1]; GABA alone at 1-0.1 mM) of the same molecule?
The INS-1 cell proliferation was “stimulated INS-1 cell proliferation”.

What about the “INS-1 cell proliferation, single agents” value [1, 12] of the same molecule?
Its value is “induced INS-1 cell proliferation”.

What about the adverse effects [8] of the same molecule?
Its adverse effects is “no adverse effects”.

What about the clinical benefit [8] of the same molecule?
Its clinical benefit is “no clinical benefit”.

And the “replicating adult human β-cells in islet xenoplants” value [9]?
The value was 2-3%.

For `CCC(C)N(C)C(=O)c1cc2ccccc2c(-c2ccccc2Cl)n1` (centres unmarked) [PK11195], which “effect of TSPO inhibitor on GABA + midazolam or clonazepam enhanced INS-1 cell proliferation” value ([1]; PK11195 1 uM, GABA 0.3 mM, PAM 100 nM, 48 hrs, FIG. 9 panel H) is on record?
The value was “not affected by PK11195; also recorded: did not affect the ability of GABA and the tested benzodiazepines to enhance INS-1 cell replication”.

And the “INS-1 cell proliferation, single agents” value [1, 12]?
Its value is “but not clonazepam or PK11195 induced INS-1 cell proliferation”.

With `Cc1cc(NC(=O)/C(C#N)=C(\O)C2CC2)ccc1C(F)(F)F` [AP325] as the molecule, how does the “effect on GABA-induced INS-1 cell proliferation” value ([1]; AP325 at 10^−7-10^−8 M with GABA, FIG. 7) read?
Its value is “significantly enhanced GABA-induced INS-1 cell proliferation”.

What about the “INS-1 cell proliferation (toxicity at high dose)” value ([1]; compound alone at 10^−4-10^−5 M, FIG. 6) of the same molecule?
The value was “significantly inhibited INS-1 cell proliferation”.

What about the INS-1 cell proliferation ([1]; compound alone at 10^−6-10^−10, FIG. 6) of the same molecule?
Its INS-1 cell proliferation is “did not increase significantly the proliferation of INS-1 cells”.

What about the INS-1 cell proliferation [1, 14] of the same molecule?
Its INS-1 cell proliferation is “slightly increased the proliferation of INS-1 cells”.

And the INS-1 cell proliferation ([1]; compound at 3×10^−7-10^−8 M together with 0.03 mM GABA)?
Its INS-1 cell proliferation is “significantly promoted INS-1 cell proliferation”.

What about the INS-1 cell proliferation ([1]; compound at 10^−6 M, data not shown) of the same molecule?
Its INS-1 cell proliferation is “did not significantly change the proliferation of INS-1 cells”.

And the INS-1 cell proliferation ([1]; compound at 10^−7 together with 0.01 mM GABA)?
The INS-1 cell proliferation was “significantly stimulated INS-1 cell proliferation”.

What about the “soluble in DMSO” value ([2]; in DMSO) of the same molecule?
Its value is 50 mM.
